Reference: patent US20130071854A1, “METHODS FOR THE IDENTIFICATION AND CHARACTERIZATION OF HDAC INTERACTING COMPOUNDS” (priority 2009, published 2013)

How the values were obtained:
ISOC2 = target: T1, ISOC2 (Homo sapiens, UniProt Q96AB3); assay: Competition binding assay in cell lysate, affinity matrix, MS
T1 construct: endogenous in cells

NOSIP = target: T2, NOSIP (Homo sapiens, UniProt Q9Y314); assay: as above
T2 construct: endogenous in cells
T2 sequence (Q9Y314 whole entry): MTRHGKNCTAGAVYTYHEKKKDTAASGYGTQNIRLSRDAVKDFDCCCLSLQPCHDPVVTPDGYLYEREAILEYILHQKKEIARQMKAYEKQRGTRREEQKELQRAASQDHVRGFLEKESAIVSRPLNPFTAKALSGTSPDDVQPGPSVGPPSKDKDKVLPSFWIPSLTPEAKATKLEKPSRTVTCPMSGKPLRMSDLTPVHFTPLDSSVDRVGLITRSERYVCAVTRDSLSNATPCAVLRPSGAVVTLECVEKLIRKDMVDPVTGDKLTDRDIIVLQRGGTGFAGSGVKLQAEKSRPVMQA

T1 sequence (Q96AB3 whole entry): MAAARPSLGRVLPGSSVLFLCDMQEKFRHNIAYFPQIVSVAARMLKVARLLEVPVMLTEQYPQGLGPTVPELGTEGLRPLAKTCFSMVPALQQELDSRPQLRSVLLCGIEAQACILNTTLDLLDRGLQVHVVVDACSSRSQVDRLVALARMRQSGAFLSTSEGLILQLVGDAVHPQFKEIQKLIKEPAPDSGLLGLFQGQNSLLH

Work on Nc1ccccc1NC(=O)c1ccc(CNC(=O)OCc2cccnc2)cc1 [MS-275] yielded an IC50 (ISOC2) of no less than 300 µM and an IC50 (NOSIP) of no less than 300 µM.
